# Assay results as given in patent US10920265B2, “Compounds and methods for detection of enzymes that remove methyl succinyl groups from epsilon-amino lysine moieties” (Enzo Life Sciences, Inc., priority 2011, dated 2021).
# Assays:
# HDAC6 = biological target: T1, HDAC6 (Homo sapiens, UniProt Q9UBN7); assay: HDAC activity with fluorogenic lysyl substrates; type: biochemical; settings: 50 μM substrate
# T1 construct: purchased ENZO Life Sciences BML-SE508
# In short: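 Kit-based fluorogenic assay at 37 °C using trypsin-developed lysyl-AMC substrates bearing acetyl, succinyl or trifluoroacetyl groups. Enzyme sources were human recombinant HDACs and SIRTs, HDAC3/NCOR1, HeLa nuclear extract, or NP-40 lysate of HeLa S3 cells in 50 mM Tris/HCl pH 8.0.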
# HDAC4 = assay: HDAC activity with fluorogenic lysyl substrates; type: biochemical, human; settings: 50 μM substrate
# Procedure: (§1) The Ac-Lys(Succ.)-AMC substrate was tested for activity with recombinant preparations of human HDACs 1-11, SIRTs 1-4, 6 and 7, a complex of HDAC3 with a fragment of the activating protein NCOR1 and with HeLa nuclear extract, a rich source of active HDACs in their native multiprotein complexes.
# Enzyme and extract catalog products obtained from ENZO Life Sciences included: HDAC1 (Cat. # BML-SE456), HDAC2 (Cat. # BML-SE500), HDAC3 (Cat. # BML-SE507), HDAC3/NCOR1 Complex (Cat. # BML-SE515), HDAC6 (Cat. # BML-SE508), HDAC8 (Cat. # BML-SE145), HDAC10 (Cat. # BML-SE559), HDAC11 (Cat. # BML-SE560), SIRT1 (Cat. # BML-SE239), SIRT2 (Cat. # BML-SE251), SIRT3 (Cat. # BML-SE270), SIRT5 (Cat. # BML-SE555), HeLa Nuclear Extract (Cat. # BML-KI140), Trypsin (“Fluor de Lys Developer”, 80 mg/ml bovine trypsin in 1 mM HCl, Cat. # BML-KI105 or “Fluor de Lys Developer II”, 80 mg/ml bovine trypsin in 1 mM HCl, Cat. # BML-KI176). […] Enzymes obtained from BPS Bioscience, San Diego, Calif. included: human recombinants SIRT4 (Cat. #50015), SIRT6 (Cat. #50017), SIRT7 (Cat. #50018). […]
# SIRT7 = biological target: T2, SIRT7 (Homo sapiens, UniProt Q9NRC8); assay: Sirtuin activity with fluorogenic lysyl substrates; type: biochemical; settings: 50 μM substrate, 500 μM NAD^+
# T2 construct: purchased BPS Bioscience 50018
# T2 sequence (Q9NRC8 1-400): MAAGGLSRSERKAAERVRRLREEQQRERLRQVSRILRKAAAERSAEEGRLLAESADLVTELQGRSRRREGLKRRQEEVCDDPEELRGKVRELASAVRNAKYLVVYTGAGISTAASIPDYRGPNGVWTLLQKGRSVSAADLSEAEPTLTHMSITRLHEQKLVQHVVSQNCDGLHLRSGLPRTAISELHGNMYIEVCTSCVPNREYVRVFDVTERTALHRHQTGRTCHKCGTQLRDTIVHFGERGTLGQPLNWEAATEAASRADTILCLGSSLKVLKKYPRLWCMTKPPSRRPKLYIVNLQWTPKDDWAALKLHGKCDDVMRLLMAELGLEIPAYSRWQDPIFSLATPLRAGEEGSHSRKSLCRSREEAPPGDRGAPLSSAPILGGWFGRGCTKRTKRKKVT
# Procedure: as §1
# Enzyme and extract catalog products obtained from ENZO Life Sciences included: HDAC1 (Cat. # BML-SE456), HDAC2 (Cat. # BML-SE500), HDAC3 (Cat. # BML-SE507), HDAC3/NCOR1 Complex (Cat. # BML-SE515), HDAC6 (Cat. # BML-SE508), HDAC8 (Cat. # BML-SE145), HDAC10 (Cat. # BML-SE559), HDAC11 (Cat. # BML-SE560), SIRT1 (Cat. # BML-SE239), SIRT2 (Cat. # BML-SE251), SIRT3 (Cat. # BML-SE270), SIRT5 (Cat. # BML-SE555), HeLa Nuclear Extract (Cat. # BML-KI140), Trypsin (“Fluor de Lys Developer”, 80 mg/ml bovine trypsin in 1 mM HCl, Cat. # BML-KI105 or “Fluor de Lys Developer II”, 80 mg/ml bovine trypsin in 1 mM HCl, Cat. # BML-KI176). […] Enzymes obtained from BPS Bioscience, San Diego, Calif. included: human recombinants SIRT4 (Cat. #50015), SIRT6 (Cat. #50017), SIRT7 (Cat. #50018). HeLa whole cell extract was obtained from HeLa S3 cells (American Type Culture Collection) grown in a medium of MEM/10% fetal bovine serum (FBS) as follows: 1) 9×10^6 cells were suspended by trypsinization, followed by a phosphate buffered saline (PBS) rinse and addition of MEM/10% FBS (1.5 mL) to eliminate trypsin before transfer to a 15 mL conical tube; 2) cells were sedimented by a low speed centrifugation, gently resuspended in PBS and sedimented again and supernatant removed; 3) lysis was induced by resuspension in 0.8 mL 50 mM Tris/HCl, pH 8.0 with the non-denaturing detergent NP-40 (0.5%), placement on ice and brief vortexing every 5 min. for 30 min.; 4) 100 μl of a concentrated salt solution in the same buffer was added in order to bring the final buffer composition to 50 mM Tris/C1, pH 8.0, 137 mM NaCl, 2.7 mM KCl, 1 mM MgCl2, 0.5% NP-40; 5) particulate matter was cleared by centrifugation and the cleared lysate supernatant transferred to a 1.5 mL Eppendorf tube and stored on ice until use in activity assays.
# Assays were performed at 37° C., according to the manufacturer's instructions for the “SIRT1 Fluorometric Drug Discovery Kit” from Enzo Life Sciences (ELS) (Cat. # BML-AK555), with exceptions described as follows. Where indicated in figures and text, SIRT1 enzyme was replaced with another enzyme or extract and the “Fluor de Lys-SIRT1 Substrate” (Ac-Arg-His-Lys-Lys(Ac)-AMC; ELS Cat. # BML-KI-177) was replaced with another acetylated, succinylated or trifluoroacetylated substrate.
# HeLa cells = assay: Intact HeLa cell desuccinylation/deacetylation assay; type: cell-based, human; settings: 200 μM substrate in medium, four hours
# Procedure: HeLa cells were cultured to 95% confluence in the wells of ½-volume 96-well plates. […] After the indicated time, cells were lysed with detergent and trypsin added to release AMC from desuccinylated or deacetylated substrate and then fluorescence read (Ex.360 nm/Em. 460 nm). For “0 hr.” samples, substrate, inhibitors, lysis buffer and trypsin were added simultaneously. Bars represent the mean of three determinations and the error bars the Standard Deviation from that mean. Statistically significant differences between the fluorescences of “4 hr.” and “0 hr.” samples (Student's t-test) are indicated by asterisks as follows: *,p<0.02; **, p<0.002.
# An assay employing Ac-Lys(Ac.)-AMC to measure the HDAC and sirtuin deacetylase activity of intact cultured cells has been described (Howitz, K. T. et al. Nature 425, 191-196 (2003); Product Manual of Enzo Life Sciences Cat. # BML-AK-503, “HDAC Fluorimetric Cellular Activity Assay Kit”, Appendix F). Ac-Lys(Ac)-AMC is added to the culture medium, enters the cells and is deacetylated by HDACs and sirtuins in their native intracellular context. Measurement of the amount of Ac-Lys-AMC produced by intracellular deacetylation is then accomplished by detergent lysis of the cells and release of the AMC fluorophore by trypsin. We therefore investigated whether Ac-Lys(Succ.)-AMC could be used to measure intracellular desuccinylation activity, in a similar fashion, with cultured HeLa cells. […] These latter, deacetylation results are consistent with previous observations made with this assay system (see Howitz, K. T. et al. Nature 425, 191-196 (2003) and Appendix F).
# Assays (FIG. 10) were performed according to the manufacturer's instructions for the ““HDAC Fluorometric Cellular Activity Assay Kit” (ELS Cat. # BML-AK503), with exceptions described as follows. Where indicated the “Fluor de Lys Substrate” (Ac-Lys(Ac.)-AMC; ELS Cat. # BML-KI104) was replaced with Ac-Lys(Succ.)-AMC (1).
# T1 sequence (Q9UBN7 whole entry): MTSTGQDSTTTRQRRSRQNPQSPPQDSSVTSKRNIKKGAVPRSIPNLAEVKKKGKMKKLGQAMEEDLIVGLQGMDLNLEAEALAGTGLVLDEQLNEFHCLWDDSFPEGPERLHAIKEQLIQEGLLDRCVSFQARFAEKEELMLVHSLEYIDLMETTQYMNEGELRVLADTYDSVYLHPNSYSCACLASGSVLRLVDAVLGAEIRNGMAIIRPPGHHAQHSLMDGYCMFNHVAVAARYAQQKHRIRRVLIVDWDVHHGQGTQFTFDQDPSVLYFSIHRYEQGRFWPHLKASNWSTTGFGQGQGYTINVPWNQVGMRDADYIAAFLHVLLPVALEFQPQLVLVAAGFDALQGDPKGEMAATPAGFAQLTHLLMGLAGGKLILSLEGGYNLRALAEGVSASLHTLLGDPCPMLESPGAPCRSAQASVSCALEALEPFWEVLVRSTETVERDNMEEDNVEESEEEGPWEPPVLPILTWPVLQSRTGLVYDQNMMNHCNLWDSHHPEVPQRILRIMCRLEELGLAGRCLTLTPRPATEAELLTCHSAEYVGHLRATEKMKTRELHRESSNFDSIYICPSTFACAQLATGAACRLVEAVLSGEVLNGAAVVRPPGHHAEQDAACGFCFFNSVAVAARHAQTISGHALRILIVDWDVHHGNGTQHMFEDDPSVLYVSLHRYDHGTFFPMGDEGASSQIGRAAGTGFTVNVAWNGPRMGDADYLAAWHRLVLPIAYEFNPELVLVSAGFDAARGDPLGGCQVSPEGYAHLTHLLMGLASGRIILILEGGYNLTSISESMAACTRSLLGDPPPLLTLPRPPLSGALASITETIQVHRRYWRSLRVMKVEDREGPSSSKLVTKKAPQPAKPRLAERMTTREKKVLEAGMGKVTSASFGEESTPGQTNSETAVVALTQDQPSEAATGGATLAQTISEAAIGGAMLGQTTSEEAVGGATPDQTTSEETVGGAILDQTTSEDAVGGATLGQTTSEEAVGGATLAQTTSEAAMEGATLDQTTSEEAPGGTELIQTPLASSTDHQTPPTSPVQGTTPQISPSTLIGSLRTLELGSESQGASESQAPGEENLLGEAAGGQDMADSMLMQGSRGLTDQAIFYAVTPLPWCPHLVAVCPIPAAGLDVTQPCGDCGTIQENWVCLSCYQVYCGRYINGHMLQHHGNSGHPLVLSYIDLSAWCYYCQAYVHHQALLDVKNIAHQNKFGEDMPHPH
SMILES,Activity (HDAC6) [pmol/min/µg],Activity (pmol/min/μg) (HDAC4),Activity (pmol/min/μg) (SIRT7),Intracellular desuccinylation/deacetylation of substrate (HeLa cells),Activity (pmol/min/μg) (HDAC6)
"CC(=O)NCCCCC(NC(C)=O)C(=O)Nc1ccc2c(C)cc(=O)oc2c1 (stereo not shown) [Ac-Lys(Ac.)-AMC, Ac-Lys(ε-acetyl)-AMC, reference compound]",1.0,Undetectable,Undetectable,significant deacetylation,–
"CC(=O)N[C@@H](CCCCNC(=O)CCC(=O)O)C(=O)Nc1ccc2c(C)cc(=O)oc2c1 [Compound 1, N—(N^α-acetyl-L-Lysine(N^ε-succinyl))-AMC]",–,Undetectable,Undetectable,no significant desuccinylation,Undetectable
"CCCCCCCCCCCCCC(=O)NCCCC[C@H](NC(C)=O)C(=O)Nc1ccc2c(C)cc(=O)oc2c1 [Compound 4, N—(N^α-acetyl-L-Lysine(N^ε-myristoyl))-AMC]",–,–,Undetectable,–,–
"COC(=O)CCC(=O)NCCCC[C@H](NC(C)=O)C(=O)Nc1ccc2c(C)cc(=O)oc2c1 [Compound 5, N—(N^α-acetyl-L-Lysine(N^ε-methyl succinyl))-AMC]",–,–,Undetectable,–,–
